Kd data for seven compounds are collected here from patent publication US20240109865A1, “INDAZOLE COMPOUNDS AS KINASE INHIBITORS” (TYRA BIOSCIENCES, INC., priority 2020, published 2024).

Holding throughout (assay): Kinase assay, binding constants (Kd), kinase-tagged T7 phage, qPCR
(Quantitative PCR measures a nucleic acid by following its amplification.)

One assay addresses FGFR1 (Homo sapiens (Human), UniProt P11362). Put shortly: (§1)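 Using T7 phage lysates from BL21-derived E. coli, compounds at 0.9% final DMSO competed for kinase binding to ligand-bearing magnetic beads. After elution, qPCR measured remaining kinase, and Kds were fitted by non-linear least squares with the Hill slope fixed at −1.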
For another assay, the target named is FGFR2 (Homo sapiens (Human), UniProt P21802). Put shortly:
as §1

The target in another assay is FGFR3 (Homo sapiens (Human), UniProt P22607). The method, boiled down:
as §1

Another assay addresses FGFR3 (V555M) (Homo sapiens (Human), UniProt P22607, V555M). The conditions noted are these: V555M mutant. The method, boiled down: as §1
The next assay deals with FGFR4 (Homo sapiens (Human), UniProt P22455). Put shortly:
as §1

Sequence of FGFR2 (P21802 22-821): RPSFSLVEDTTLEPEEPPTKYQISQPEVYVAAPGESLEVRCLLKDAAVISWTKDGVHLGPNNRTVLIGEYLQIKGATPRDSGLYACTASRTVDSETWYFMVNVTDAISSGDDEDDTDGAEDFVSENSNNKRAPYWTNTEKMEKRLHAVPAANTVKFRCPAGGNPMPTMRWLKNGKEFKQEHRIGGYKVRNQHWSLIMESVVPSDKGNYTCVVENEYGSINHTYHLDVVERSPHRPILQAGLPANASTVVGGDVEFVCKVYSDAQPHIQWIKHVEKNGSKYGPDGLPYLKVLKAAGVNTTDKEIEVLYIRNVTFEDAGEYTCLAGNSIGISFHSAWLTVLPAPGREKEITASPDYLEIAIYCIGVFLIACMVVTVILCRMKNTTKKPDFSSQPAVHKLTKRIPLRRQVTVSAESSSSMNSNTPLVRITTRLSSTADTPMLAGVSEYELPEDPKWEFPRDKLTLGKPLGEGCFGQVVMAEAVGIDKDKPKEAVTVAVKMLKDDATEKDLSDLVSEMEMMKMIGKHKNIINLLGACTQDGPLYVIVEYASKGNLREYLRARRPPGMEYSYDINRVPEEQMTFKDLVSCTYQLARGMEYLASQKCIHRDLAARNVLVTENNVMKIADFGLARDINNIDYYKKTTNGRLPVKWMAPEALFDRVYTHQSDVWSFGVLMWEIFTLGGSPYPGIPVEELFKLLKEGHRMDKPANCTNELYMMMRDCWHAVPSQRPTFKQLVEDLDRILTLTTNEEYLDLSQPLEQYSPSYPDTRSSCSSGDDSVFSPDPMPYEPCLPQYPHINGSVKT
Sequence of FGFR3 (V555M) (P22607 23-806 V555M): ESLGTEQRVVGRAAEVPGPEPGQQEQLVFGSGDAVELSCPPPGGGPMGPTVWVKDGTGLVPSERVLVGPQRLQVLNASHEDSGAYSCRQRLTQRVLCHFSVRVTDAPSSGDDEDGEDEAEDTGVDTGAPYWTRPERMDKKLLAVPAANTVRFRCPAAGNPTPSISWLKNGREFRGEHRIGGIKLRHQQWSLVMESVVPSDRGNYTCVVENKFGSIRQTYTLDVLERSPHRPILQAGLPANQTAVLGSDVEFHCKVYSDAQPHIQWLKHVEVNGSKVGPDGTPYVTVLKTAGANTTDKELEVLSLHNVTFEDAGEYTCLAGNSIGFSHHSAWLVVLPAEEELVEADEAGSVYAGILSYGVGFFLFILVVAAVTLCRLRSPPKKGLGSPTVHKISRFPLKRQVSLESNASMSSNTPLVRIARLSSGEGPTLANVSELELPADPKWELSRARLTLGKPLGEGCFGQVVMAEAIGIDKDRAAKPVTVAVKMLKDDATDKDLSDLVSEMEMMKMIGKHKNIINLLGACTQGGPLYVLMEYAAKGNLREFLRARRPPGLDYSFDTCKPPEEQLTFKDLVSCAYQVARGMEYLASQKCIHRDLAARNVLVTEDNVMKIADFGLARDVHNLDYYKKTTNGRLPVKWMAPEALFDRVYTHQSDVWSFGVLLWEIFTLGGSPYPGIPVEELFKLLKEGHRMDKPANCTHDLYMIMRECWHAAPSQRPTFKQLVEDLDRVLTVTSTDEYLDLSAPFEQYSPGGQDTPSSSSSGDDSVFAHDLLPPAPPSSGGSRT
Sequence of FGFR1 (P11362 22-822): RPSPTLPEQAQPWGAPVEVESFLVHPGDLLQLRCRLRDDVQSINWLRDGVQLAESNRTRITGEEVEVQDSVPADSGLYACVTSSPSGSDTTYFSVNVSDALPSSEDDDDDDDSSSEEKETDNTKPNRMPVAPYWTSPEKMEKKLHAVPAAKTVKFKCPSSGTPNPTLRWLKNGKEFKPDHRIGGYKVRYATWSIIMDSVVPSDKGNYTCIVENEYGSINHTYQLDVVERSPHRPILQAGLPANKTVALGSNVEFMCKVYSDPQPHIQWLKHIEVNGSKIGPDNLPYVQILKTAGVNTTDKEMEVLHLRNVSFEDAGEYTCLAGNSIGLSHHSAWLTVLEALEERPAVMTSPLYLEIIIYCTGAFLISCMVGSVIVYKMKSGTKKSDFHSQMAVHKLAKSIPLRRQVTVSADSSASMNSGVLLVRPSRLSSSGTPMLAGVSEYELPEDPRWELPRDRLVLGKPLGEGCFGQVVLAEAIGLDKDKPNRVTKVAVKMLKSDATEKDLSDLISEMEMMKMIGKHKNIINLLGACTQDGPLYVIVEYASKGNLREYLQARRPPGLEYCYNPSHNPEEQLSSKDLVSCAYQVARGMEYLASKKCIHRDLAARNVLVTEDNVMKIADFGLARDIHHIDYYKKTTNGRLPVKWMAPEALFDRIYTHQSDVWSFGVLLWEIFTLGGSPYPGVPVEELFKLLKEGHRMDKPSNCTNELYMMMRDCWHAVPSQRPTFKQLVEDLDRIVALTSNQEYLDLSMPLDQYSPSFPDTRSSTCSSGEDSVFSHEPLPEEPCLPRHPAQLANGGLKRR
Sequence of FGFR3 (P22607 23-806): as the sequence (P22607 23-806 V555M) above, with M533V counted along it
Sequence of FGFR4 (P22455 22-802): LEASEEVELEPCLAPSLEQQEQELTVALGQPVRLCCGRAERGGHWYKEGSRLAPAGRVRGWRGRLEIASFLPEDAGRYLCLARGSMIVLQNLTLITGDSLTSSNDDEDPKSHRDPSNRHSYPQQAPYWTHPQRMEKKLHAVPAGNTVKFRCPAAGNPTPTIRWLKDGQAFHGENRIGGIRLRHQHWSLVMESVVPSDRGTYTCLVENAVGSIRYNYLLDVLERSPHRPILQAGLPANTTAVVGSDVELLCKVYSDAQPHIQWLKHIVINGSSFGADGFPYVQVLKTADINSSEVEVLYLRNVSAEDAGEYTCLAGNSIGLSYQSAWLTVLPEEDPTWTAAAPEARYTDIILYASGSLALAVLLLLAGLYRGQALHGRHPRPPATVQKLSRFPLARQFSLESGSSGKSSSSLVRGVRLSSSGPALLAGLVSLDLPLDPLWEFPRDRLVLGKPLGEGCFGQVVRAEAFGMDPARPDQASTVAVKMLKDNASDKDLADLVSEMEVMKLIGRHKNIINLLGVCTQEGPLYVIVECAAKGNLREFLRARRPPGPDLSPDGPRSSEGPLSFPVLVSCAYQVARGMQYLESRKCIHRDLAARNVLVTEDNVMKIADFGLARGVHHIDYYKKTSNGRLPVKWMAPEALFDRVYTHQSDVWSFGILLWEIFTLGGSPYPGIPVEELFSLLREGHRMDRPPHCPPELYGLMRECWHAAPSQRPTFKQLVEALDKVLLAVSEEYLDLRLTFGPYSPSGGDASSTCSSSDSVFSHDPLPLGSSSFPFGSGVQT

On to `C[C@@H](Oc1ccc2[nH]nc(-c3cnc(N4CCC[C@H]4CO)c(C#N)c3)c2c1)c1c(Cl)cncc1Cl` [Example 334, 5-(5-((R)-1-(3,5-dichloropyridin-4-yl)ethoxy)-1H-indazol-3-yl)-2-((S)-2-(hydroxymethyl)pyrrolidin-1-yl)nicotinonitrile], for which the Kd on FGFR1 lay within 20 to 100 nM; on FGFR2, 20 to 100 nM; on FGFR3, 1 to 20 nM; on FGFR3 (V555M) it was 1 to 20 nM; on FGFR4, 1 to 20 nM.

Take `Cc1cnnc(C)c1[C@@H](C)Oc1ccc2[nH]nc(-c3cnc(N4CCC[C@@H]4CO)c(C#N)c3)c2c1` [Example 335, 5-(5-((R)-1-(3,5-dimethylpyridazin-4-yl)ethoxy)-1H-indazol-3-yl)-2-((R)-2-(hydroxymethyl)pyrrolidin-1-yl)nicotinonitrile]: the Kd at FGFR1 lay in the range of 1 to 20 nM; on FGFR2, 20 to 100 nM; at FGFR3 it was 1 to 20 nM; on FGFR3 (V555M), 1 to 20 nM; on FGFR4, 1 to 20 nM.

As for `Cc1cnnc(C)c1[C@@H](C)Oc1ccc2[nH]nc(-c3cnc(N4CCC[C@H]4CO)c(C#N)c3)c2c1` [Example 336, 5-(5-((R)-1-(3,5-dimethylpyridazin-4-yl)ethoxy)-1H-indazol-3-yl)-2-((S)-2-(hydroxymethyl)pyrrolidin-1-yl)nicotinonitrile], the Kd at FGFR1 was 20 to 100 nM; at FGFR2 it was 20 to 100 nM; on FGFR3, 20 to 100 nM; on FGFR3 (V555M), 1 to 20 nM; on FGFR4, 1 to 20 nM.

For `C[C@@H](Oc1ccc2[nH]nc(-c3cnc(N4CC5(C4)CN(S(C)(=O)=O)C5)c(C#N)c3)c2c1)c1c(Cl)cncc1Cl` [Example 337, (R)-5-(5-(1-(3,5-dichloropyridin-4-yl)ethoxy)-1H-indazol-3-yl)-2-(6-(methylsulfonyl)-2,6-diazaspiro[3.3]heptan-2-yl)nicotinonitrile], the Kd was 20 to 100 nM at FGFR1; 100 to 300 nM on FGFR2; 20 to 100 nM at FGFR3; 1 to 20 nM on FGFR3 (V555M); 1 to 20 nM on FGFR4.

As for `C[C@@H](Oc1ccc2[nH]nc(-c3cnc(N4CC5(CCCN(S(C)(=O)=O)C5)C4)c(C#N)c3)c2c1)c1c(Cl)cncc1Cl` [Example 338, (R)-5-(5-(1-(3,5-dichloropyridin-4-yl)ethoxy)-1H-indazol-3-yl)-2-(6-(methylsulfonyl)-2,6-diazaspiro[3.5]nonan-2-yl)nicotinonitrile], the Kd was 100 to 300 nM at FGFR1; > 300 nM on FGFR2; 20 to 100 nM at FGFR3; 1 to 20 nM at FGFR3 (V555M); 1 to 20 nM on FGFR4.

Take `COc1cc2[nH]nc(-c3cnc(N4CC5(CCS(=O)(=O)C5)C4)c(C#N)c3)c2cc1O[C@H](C)c1c(Cl)cncc1Cl` [Example 339, (R)-5-(5-(1-(3,5-dichloropyridin-4-yl)ethoxy)-6-methoxy-1H-indazol-3-yl)-2-(6,6-dioxido-6-thia-2-azaspiro[3.4]octan-2-yl)nicotinonitrile]: the Kd at FGFR1, on FGFR2, at FGFR3, at FGFR3 (V555M) and at FGFR4 was 1 to 20 nM throughout.

For the compound `C[C@@H](Oc1ccc2[nH]nc(-c3cnc(N4CC5(CCCS(=O)(=O)C5)C4)c(C#N)c3)c2c1)c1c(Cl)cncc1Cl` [Example 340, (R)-5-(5-(1-(3,5-dichloropyridin-4-yl)ethoxy)-1H-indazol-3-yl)-2-(6,6-dioxido-6-thia-2-azaspiro[3.5]nonan-2-yl)nicotinonitrile], the Kd fell in the range of 100 to 300 nM at FGFR1; 100 to 300 nM on FGFR2; 1 to 20 nM on FGFR3; 100 to 300 nM at FGFR3 (V555M); 1 to 20 nM at FGFR4.

For orientation: Kd means the free concentration of one partner at which half of the binding sites on the other are occupied at equilibrium, for simple one-to-one binding. High values mean a looser complex, low ones a tighter complex.
